Results published in ChEMBL document CHEMBL1201862, “PubChem BioAssay data set” (2004).
The source made the active and inactive calls.

Key:
Estrogen receptor = molecular target: T1, Estrogen receptor (Homo sapiens, UniProt P03372);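 also: potency for inhibiting coactivator peptide recruitment to the receptor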
T1 sequence (P03372 whole entry): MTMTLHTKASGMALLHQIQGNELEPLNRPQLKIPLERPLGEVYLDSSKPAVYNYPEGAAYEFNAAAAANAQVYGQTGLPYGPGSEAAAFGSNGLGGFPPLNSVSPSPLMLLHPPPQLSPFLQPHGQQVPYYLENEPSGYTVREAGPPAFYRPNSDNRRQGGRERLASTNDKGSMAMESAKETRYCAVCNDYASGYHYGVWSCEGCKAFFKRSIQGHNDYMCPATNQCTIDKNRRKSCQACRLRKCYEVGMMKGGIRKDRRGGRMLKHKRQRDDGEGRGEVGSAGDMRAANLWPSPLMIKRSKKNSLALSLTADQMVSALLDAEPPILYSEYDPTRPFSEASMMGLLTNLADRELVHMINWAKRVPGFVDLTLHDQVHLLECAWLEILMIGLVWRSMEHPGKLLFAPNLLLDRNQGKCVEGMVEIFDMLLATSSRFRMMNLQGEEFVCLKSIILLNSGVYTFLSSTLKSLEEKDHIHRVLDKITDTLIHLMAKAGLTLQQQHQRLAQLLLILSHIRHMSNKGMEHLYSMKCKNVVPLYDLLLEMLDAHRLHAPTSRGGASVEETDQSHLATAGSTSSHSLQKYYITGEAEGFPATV

[1] = microbe, parasite or virus in culture; type: functional; conditions: Mycobacterium tuberculosis
[2] = Trypanosoma cruzi growth suppression in host cells – NIH3T3 host cells, beta-gal luminescence, confirmation (AID 2044); type: functional, cell-based;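 also: intracellular parasites grown in NIH/3T3 mouse fibroblasts as host cells; luminescent beta-galactosidase reporter signal from transgenic T. cruzi replicating inside host cells; inhibitors lower the luminescence signal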
[3] = NIH3T3 cell viability loss – ATP luminescence, mouse fibroblasts, counter-screen, dose response (AID 2010); type: functional, cell-based;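 also: cells exposed to compound for about 90 hours before reading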
Protein skinhead-1 = molecular target: T2, Protein skinhead-1 (Caenorhabditis elegans, UniProt P34707); type: functional
T2 sequence (P34707 whole entry): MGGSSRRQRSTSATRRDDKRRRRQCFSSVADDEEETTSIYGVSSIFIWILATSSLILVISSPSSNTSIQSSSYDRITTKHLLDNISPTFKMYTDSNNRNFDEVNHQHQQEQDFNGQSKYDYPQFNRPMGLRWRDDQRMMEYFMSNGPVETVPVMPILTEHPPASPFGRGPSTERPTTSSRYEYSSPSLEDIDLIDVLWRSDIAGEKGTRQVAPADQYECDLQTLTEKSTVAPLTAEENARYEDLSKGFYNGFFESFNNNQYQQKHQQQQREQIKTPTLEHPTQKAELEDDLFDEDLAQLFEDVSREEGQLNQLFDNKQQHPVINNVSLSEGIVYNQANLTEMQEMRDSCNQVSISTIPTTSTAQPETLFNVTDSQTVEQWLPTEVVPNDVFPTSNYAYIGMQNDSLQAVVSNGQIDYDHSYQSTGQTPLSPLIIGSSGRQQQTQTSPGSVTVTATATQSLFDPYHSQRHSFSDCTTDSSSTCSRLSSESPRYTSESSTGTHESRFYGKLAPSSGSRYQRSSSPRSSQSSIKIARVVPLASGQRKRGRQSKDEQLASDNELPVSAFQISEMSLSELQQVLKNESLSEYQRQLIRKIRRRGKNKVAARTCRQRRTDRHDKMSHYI

[4] = A Cell Based Secondary Assay To Explore Cytotoxicity of Compounds that Sensitize Mycobacterium Tuberculosis to Beta-Lactam Antibiotics.; type: functional
[5] = molecular target: T3, Calpain-2 catalytic subunit (Sus scrofa, UniProt P43367); experiment: m-calpain protease blockers, concentration series – biochemical, fluorogenic peptide substrate, dose response (AID 1420); type: functional
T3 sequence (P43367 whole entry): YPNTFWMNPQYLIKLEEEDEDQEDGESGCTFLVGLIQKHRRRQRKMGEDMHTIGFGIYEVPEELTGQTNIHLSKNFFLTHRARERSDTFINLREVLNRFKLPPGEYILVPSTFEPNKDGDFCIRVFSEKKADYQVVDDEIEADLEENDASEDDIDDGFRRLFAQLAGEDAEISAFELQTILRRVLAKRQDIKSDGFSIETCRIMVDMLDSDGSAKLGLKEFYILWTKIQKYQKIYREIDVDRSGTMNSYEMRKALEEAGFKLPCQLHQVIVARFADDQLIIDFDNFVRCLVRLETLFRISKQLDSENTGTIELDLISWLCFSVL

H9c2 = experiment: cells; type: functional, cell-based; conditions: Rattus norvegicus, H9c2, Myocardium;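 also: confirmatory concentration-response retest of ultra-high-throughput screening hits for modulation of myocardial damage; cell death induced by hydrogen peroxide oxidative stress; compound pretreatment for 60 min then peroxide exposure for 2 h; potency is for protecting the cells against peroxide damage rather than for killing them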
[6] = Luminescence Cell-Based Dose Retest to Confirm Inhibitors of Cancer Stem Cells. [Related pubchem assays (depositor defined):AID2717, AID2721]; type: functional; conditions: Homo sapiens
INS1 = experiment: INS-1E survival protection against cytokine death – cell-based, luminescence, retest, dose response (AID 449756); type: functional; conditions: Rattus norvegicus;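 also: cell death triggered by IL-1 beta plus TNF-alpha plus IFN-gamma mixture; protective hits raise ATP signal compared with cytokine alone wells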
[7] = molecular target: T4, Microphthalmia-associated transcription factor (Homo sapiens, UniProt O75030); experiment: reducers of TRPM1 reporter luminescence, concentration series – cell-based, SK-MEL-5, cherry-picked, set 3, MITF inhibitor project, dose response (AID 493073); type: functional;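 also: SK-MEL-5 melanoma cells with luciferase driven by the MITF target TRPM1 promoter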
T4 sequence (O75030 whole entry): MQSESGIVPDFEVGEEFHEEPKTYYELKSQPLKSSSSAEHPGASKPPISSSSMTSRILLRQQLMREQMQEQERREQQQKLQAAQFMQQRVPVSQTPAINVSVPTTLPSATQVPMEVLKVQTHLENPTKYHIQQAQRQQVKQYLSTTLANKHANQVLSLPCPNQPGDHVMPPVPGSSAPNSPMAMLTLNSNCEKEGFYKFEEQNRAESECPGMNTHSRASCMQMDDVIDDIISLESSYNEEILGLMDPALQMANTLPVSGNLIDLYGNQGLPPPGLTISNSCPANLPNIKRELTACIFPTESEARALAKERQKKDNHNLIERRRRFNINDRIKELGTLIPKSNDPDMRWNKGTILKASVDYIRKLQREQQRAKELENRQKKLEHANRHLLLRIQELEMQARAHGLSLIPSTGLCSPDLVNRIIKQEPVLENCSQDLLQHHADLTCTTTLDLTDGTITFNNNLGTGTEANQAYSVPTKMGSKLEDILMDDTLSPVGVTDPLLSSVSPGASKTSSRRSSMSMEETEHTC

[8] = molecular target: T5, Carboxy-terminal domain RNA polymerase II polypeptide A small phosphatase 1 (Homo sapiens, UniProt Q9GZU7); experiment: CTDSP1 inhibitors, concentration-response, biochemical, absorbance readout, ultra-high-throughput screen actives (AID 540297); type: functional
T5 sequence (Q9GZU7 whole entry): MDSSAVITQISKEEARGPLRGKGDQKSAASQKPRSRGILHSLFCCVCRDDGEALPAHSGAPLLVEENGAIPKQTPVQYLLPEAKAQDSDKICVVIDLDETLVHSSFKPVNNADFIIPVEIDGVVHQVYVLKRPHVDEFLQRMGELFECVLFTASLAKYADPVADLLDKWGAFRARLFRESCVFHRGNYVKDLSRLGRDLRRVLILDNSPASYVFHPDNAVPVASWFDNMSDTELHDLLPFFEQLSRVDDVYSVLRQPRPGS

[9] = molecular target: T6, Heat shock factor protein 1 (Mus musculus, UniProt P38532); experiment: decrease of HSF1-responsive luciferase luminescence – cell-based, NIH3T3, dose retest, confirmation (AID 2382); type: functional;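 also: NIH3T3 fibroblasts with HSF1-driven luciferase reporter stressed by proteasome inhibitor MG132; luminescence from HSF1-driven luciferase expression after 8 hours of MG132 stress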
T6 sequence (P38532 whole entry): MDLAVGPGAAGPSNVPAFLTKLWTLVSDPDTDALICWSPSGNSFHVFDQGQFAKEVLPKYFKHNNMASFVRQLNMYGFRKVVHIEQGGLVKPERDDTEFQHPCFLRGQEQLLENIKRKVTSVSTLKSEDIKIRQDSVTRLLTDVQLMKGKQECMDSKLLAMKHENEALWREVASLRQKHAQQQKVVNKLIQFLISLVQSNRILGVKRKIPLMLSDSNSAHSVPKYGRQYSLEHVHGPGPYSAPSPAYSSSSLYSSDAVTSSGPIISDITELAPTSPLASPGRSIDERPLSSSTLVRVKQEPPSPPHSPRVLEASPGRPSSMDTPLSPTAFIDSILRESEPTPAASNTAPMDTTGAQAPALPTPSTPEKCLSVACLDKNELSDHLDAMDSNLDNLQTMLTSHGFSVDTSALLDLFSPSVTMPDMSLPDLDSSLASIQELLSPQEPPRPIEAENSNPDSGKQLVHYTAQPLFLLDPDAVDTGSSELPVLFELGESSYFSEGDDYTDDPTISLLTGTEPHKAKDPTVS

[10] = viability of PTEN-deleted HCT116 cells – cell-based, HCT116 PTEN knockout, dose response (AID 1047); type: functional;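 also: HCT116 colon tumor cells with PTEN knocked out; cells exposed to compound for 60 hours before readout; potency for loss of cell viability measured by luminescence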
[11] = viability of HCT116 lacking mutant beta-catenin – cell-based, human colon tumor, dose response (AID 1045); type: functional;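 also: HCT116 colon tumor cells with beta catenin knocked out; cells exposed to compound for 60 hours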

COc1ccc(-c2nc(C(N)=O)c3[nH]c(=O)n(-c4cccc(Cl)c4)c3n2)cc1OC
IC50 (Estrogen receptor): 6.26 µM (active)

Cc1ccc(S(=O)(=O)n2ccc3c(OCCOCCNCc4ccc(F)cc4)cccc32)cc1
CC50 [1]: 13.3 µM (active) | EC50 [2]: 0.226 µM (active) | EC50 [3]: > 30 µM (not active)

Cc1ccc(-c2noc(C3CCCN(C(=O)c4ccc(C(C)(C)C)cc4)C3)n2)o1 (stereo not drawn)
CC50 [1]: > 40 µM (active)

c1ccc(-n2nnc(-c3nccs3)n2)cc1
IC50 (Protein skinhead-1): 88.2 µM (inactive)

Cc1ccc(CNc2nc3ccccc3n3nnnc23)cc1
IC50 (Estrogen receptor): > 50 µM (not active)

COc1cc(CNCCO)cc(Br)c1OCc1ccccc1Cl
CC50 [4]: 20.3 µM (active)

Cc1cc(F)ccc1S(=O)(=O)N1CCCOC1CNC(=O)C(=O)NCc1ccc2c(c1)OCO2 (stereo not drawn)
IC50 (Protein skinhead-1): > 100 µM (inactive)

CCOc1ccc(NC(=O)CCN2CCN(C)CC2)cc1
IC50 (Protein skinhead-1): > 100 µM (inactive)

COc1ccc(N2CCN(c3nc(NC(C)(C)C)nc(N4CCCCC4)n3)CC2)cc1
IC50 [5]: 24.4 µM (not active)

CCn1nc(C(=O)OCC(=O)N2c3ccccc3CC2C)c2ccccc2c1=O (stereo not drawn)
IC50 [5]: 29.2 µM (not active)

Cc1cc(C(F)(F)F)n2ncc(-c3ccc(F)cc3)c2n1
IC50 (Protein skinhead-1): > 100 µM (inactive)

O=C(c1cccc(F)c1)N1CCN(c2cccc(C(F)(F)F)c2)CC1
IC50 (Protein skinhead-1): > 100 µM (inactive)

COCCn1c(SCC(=O)Nc2cccc(C)c2)nnc1C(C)C
IC50 (Protein skinhead-1): > 100 µM (inactive)

O=C(NC1CCCCC1)C(c1ccc2ncccc2c1)N(Cc1ccco1)C(=O)c1ccc2c(c1)OCCO2 (stereo not drawn)
CC50 [1]: > 40 µM (active) | IC50 (H9c2): 12.6 µM (active)

CC(=O)c1c(C)[nH]c(C(=O)COc2ccc(C#N)cc2)c1C
IC50 (Estrogen receptor): 34 µM (not active)

C/C(=N\NC(=N)SC1CC(=O)N(c2ccc(Cl)cc2)C1=O)c1cccs1 (stereo not drawn)
CC50 [1]: > 40 µM (active)

O=C1c2ccccc2C(=O)N1CCc1nc(-c2ccc(Cl)cc2)no1
IC50 (Protein skinhead-1): 94.6 µM (inactive)

NC(=O)CC(NC(=O)Cc1ccc(Br)cc1)c1ccc(NC2CCCCCC2)c([N+](=O)[O-])c1 (stereo not drawn)
AC50 [6]: 4.61 µM (active) | CC50 [4]: > 40 µM (active)

COc1cc(CNc2ccc(NC(C)=O)cc2)ccc1OCc1ccccc1C
CC50 [4]: > 40 µM (active)

CCN(CC)C(=O)c1cc([N+](=O)[O-])cc2c1-c1ccc([N+](=O)[O-])cc1C2=C(C#N)C#N
CC50 [1]: > 40 µM (active) | AC50 (INS1): 6.32 µM (active)

O=C(N/N=C/c1ccc([N+](=O)[O-])o1)c1ccccc1-n1cccc1
EC50 [2]: 0.137 µM (active) | EC50 [3]: > 60 µM (not active) | AC50 [7]: 17.1 µM (active) | CC50 [4]: 32.1 µM (active)

COc1cc2cnc(-c3ccsc3)c(-c3ccc(F)cc3)c2cc1OC
CC50 [4]: > 40 µM (active)

CCSc1nc2ccccc2c(=O)n1CCc1ccc(OC)c(OC)c1
CC50 [4]: > 40 µM (active)

FC(F)(F)c1cccc(NCc2nnc(S)n2C2CCCCC2)c1
IC50 [5]: 27.8 µM (not active)

O=C(CN1CCC(n2nnc3cc(C(F)(F)F)ccc32)CC1)NCc1cccs1
CC50 [1]: > 40 µM (active)

CCOc1ccc(NC(=O)c2cc3cc4ccc(OC)cc4nc3o2)cc1
IC50 (Estrogen receptor): 47.3 µM (not active) | IC50 [8]: 6.92 µM (active)

CCOc1cc(C)c(S(=O)(=O)NC2CCCCC2)cc1C
IC50 [5]: > 50 µM (not active) | EC50 [9]: > 195 µM (not active)

Cn1nnnc1SCC(=O)NC1CCCCC1
IC50 [5]: < 0.4 µM (not active)

CN=C(S)N=NC1=C(O)c2cccc3cccc1c23
EC50 [10]: 13.9 µM (active) | EC50 [11]: 10.5 µM (active) | CC50 [4]: 28.2 µM (active)

CCOc1ccc(Oc2ccc(-c3nnc(-c4ccccc4)o3)cc2[N+](=O)[O-])cc1
IC50 [5]: 4.33 µM (not active)

CCCc1nc(SCC(=O)N2CCCc3ccccc32)c2c(=O)n(C)c(=O)n(C)c2n1
IC50 [5]: 16.7 µM (not active)
